Assay results published in paper PMC5127132 (2016).

Assays:
[1] = system: A08 (5'-FAM) (DNA, aptamer) AGCCTCGTCTGTTCTCCCGGCAGTGTGGGCGAATCTATGCGTACCGTTCGATATCGTGGGGAAGACAAGCAGACGT; assay: microscale thermophoresis; details: 137 mM NaCl, 2.7 mM KCl; 10 mM Na2HPO4, 2 mM KH2PO4, pH 7.4, 25 °C
[2] = system: A08min (5'-FAM) (DNA, aptamer) GGCAGTGTGGGCGAATCTATGCGTACCGTTCGATATCGTG; assay: microscale thermophoresis; details: 137 mM NaCl, 2.7 mM KCl; 10 mM Na2HPO4, 2 mM KH2PO4, pH 7.4, 25 °C
[3] = system: H8 (5'-FAM) (DNA, aptamer) GGGAGGACGAAGCGGAACTGGGTGTGGGGTGATCAAGGGAGTAGACTACAGAAGACACGCCCGACA; assay: microscale thermophoresis; details: 137 mM NaCl, 2.7 mM KCl, 1 mM MgCl2; 10 mM Na2HPO4, 2 mM KH2PO4, pH 7.4, 25 °C
[4] = system: H12 (5'-FAM) (DNA, aptamer) GGGAGGACGAAGCGGAACCGGGTGTGGGTGCCTTGATCCAGGGAGTCTCAGAAGACACGCCCGACA; assay: microscale thermophoresis; details: 137 mM NaCl, 2.7 mM KCl, 1 mM MgCl2; 10 mM Na2HPO4, 2 mM KH2PO4, pH 7.4, 25 °C
[5] = system: 1.12.2 (DNA, aptamer) GATCGGGTGTGGGTGGCGTAAAGGGAGCATCGGACA; assay: SYBR Green I displacement; details: 120 mM NaCl, 5 mM KCl, 10 mM CaCl2; 10 mM HEPES, pH 7.0; OTA 0.2 to 70 nM
[6] = system: A08 (DNA, aptamer) AGCCTCGTCTGTTCTCCCGGCAGTGTGGGCGAATCTATGCGTACCGTTCGATATCGTGGGGAAGACAAGCAGACGT; assay: SYBR Green I displacement; details: 137 mM NaCl, 2.7 mM KCl; 10 mM Na2HPO4, 2 mM KH2PO4, pH 7.4; OTA 0.2 to 70 nM
[7] = system: A08min (DNA, aptamer) GGCAGTGTGGGCGAATCTATGCGTACCGTTCGATATCGTG; assay: SYBR Green I displacement; details: 137 mM NaCl, 2.7 mM KCl; 10 mM Na2HPO4, 2 mM KH2PO4, pH 7.4; OTA 0.2 to 70 nM
[8] = system: 1.12.2 (DNA, aptamer) GATCGGGTGTGGGTGGCGTAAAGGGAGCATCGGACA; assay: gold nanoparticle aggregation; details: 0.5 M NaCl added last; in water; OTA 0.2 to 70 nM
[9] = system: A08 (DNA, aptamer) AGCCTCGTCTGTTCTCCCGGCAGTGTGGGCGAATCTATGCGTACCGTTCGATATCGTGGGGAAGACAAGCAGACGT; assay: gold nanoparticle aggregation; details: 0.5 M NaCl added last; in water; OTA 0.2 to 70 nM
[10] = system: A08min (DNA, aptamer) GGCAGTGTGGGCGAATCTATGCGTACCGTTCGATATCGTG; assay: gold nanoparticle aggregation; details: 0.5 M NaCl added last; in water; OTA 0.2 to 70 nM
[11] = system: 1.12.2 (5'-FAM) (DNA, aptamer) GATCGGGTGTGGGTGGCGTAAAGGGAGCATCGGACA; assay: microscale thermophoresis (raw fluorescence, quenching); details: 120 mM NaCl, 5 mM KCl, 10 mM CaCl2; 10 mM HEPES, pH 7.0, 25 °C; raw fluorescence quenching analysed, may have skewed KD

KD [1]: 232.6 ± 80.6 nM
KD [2]: 96.5 ± 33.3 nM
KD [3]: 416.1 ± 119.0 nM
KD [4]: 629.5 ± 79.7 nM
binding [5]: yes
binding [6]: yes
binding [7]: yes
binding [8]: yes
binding [9]: yes
binding [10]: yes
KD [11]: 524.8 ± 147.8 nM
Compound: C[C@@H]1Cc2c(Cl)cc(C(=O)N[C@@H](Cc3ccccc3)C(=O)O)c(O)c2C(=O)O1
